# Like-named read-outs stand apart in the source and are kept apart here.
# Columns and labels:
# [1] = Phase 1/2a study, plasma pharmacokinetics of PF-07104091; format: in vivo, human; conditions: human, plasma, po; for Cmax: read-out: Cmax; for half-life: read-out: t1/2 (converted)
# From the text: Blood samples will be collected for measurement of plasma concentrations of PF-07104091 as specified in the protocol. Samples will be used to evaluate the PK of PF-07104091. Samples collected for analyses of PF-07104091 plasma concentration may also be used to evaluate safety or efficacy aspects related to concerns arising during or after the study, for metabolite identification and/or evaluation of the bioanalytical method, or for other internal exploratory purposes.
# Plasma PF-07104091 concentrations will be summarized descriptively (n, mean, standard deviation, coefficient of variation, median, minimum, maximum, geometric mean and its associated coefficient of variation) by dose, cycle, day and nominal time. Individual participant plasma PF-07104091 concentration-time data within a dose interval (with exception of the food effect substudy) after Cycle 1 Day 1 and Cycle 1 Day 15 will be analyzed using noncompartmental methods to determine single and multiple dose PK parameters. For participants in the food effect substudy, individual plasma PF-07104091 concentration-time data after Cycle 1 Day 15 and Cycle 1 Day 16 will be analyzed using noncompartmental methods to determine multiple dose PK parameters. For Part 1 of the study, single dose PK parameters to be estimated will include the Cmax, Tmax, and AUClast, and if data permit, t1/2, CL/F, and Vz/F. Multiple dose PK parameters to be estimated will include Cmax,ss, Tmax,ss, AUCT,ss, Cmin,ss, CL/F,ss, and if data permit, V/Fss, t1/2, and Rac. For Part 2 of the study (with exception of the food effect substudy), single dose PK parameters to be estimated will include Cmax, Tmax and AUClast. Multiple dose PK parameters to be estimated will include Cmax,ss, Tmax,ss, AUClast, Cmin,ss, and Rac. The single dose and steady state PK parameters will be summarized descriptively (n, mean, standard deviation, coefficient of variation, median, minimum, maximum, geometric mean and its associated coefficient of variation) by dose level, cycle and day. For participants in the food effect substudy, multiple dose PK parameters to be estimated will include Cmax,ss, AUCT,ss, Tmax,ss, Cmin,ss, CL/Fss, and if data permit, V/Fss and t1/2.
# An ongoing Phase 1/2a, open-label, multicenter, multiple dose study is being conducted to determine the safety, tolerability, PK, PD, and preliminary anti-tumor activity of PF-07104091 as a single agent and in combination with endocrine therapy. PF-07104091 is administered orally twice daily (BID) during 28-day cycles.
# Preliminary concentration-time data of PF-07104091 following single and multiple oral administration at 75 mg BID to 500 mg BID as monotherapy or in combination with endocrine therapy alone or in combination with palbociclib and endocrine therapy were available from 44 participants with advanced solid tumors and HR-positive HER2-negative advanced or metastatic breast cancer. The preliminary concentration-time data were analyzed by noncompartmental approach using actual PK sampling times.
# […] Individual values are listed when the number of participants with available parameters is less than 3.
# [2] = Nonclinical toxicity study, dog; format: in vivo
# Protocol: The selection of the starting dose and regimen was based on the nonclinical toxicology and PK results in accordance with the ICH S9 Guidance. Results from nonclinical toxicity studies indicate the STD10 of PF-07104091 in mouse was 150 mg/kg after BID oral administration. The human equivalent dose for the STD10 in mouse is approximately 729 mg BID (assuming a body weight of 60 kg). Per ICH-S9 guidance, one-tenth of the STD10 can be considered the appropriate starting dose. Given the predicted human t % of approximately 4 hours, the starting dose has been selected to be 75 mg BID. The human AUC0-12 hr of PF-07104091 at the proposed starting oral dose of 75 mg BID is predicted to be ˜6.5% of the observed AUC0-12 hr at the STD10 in mouse (150 mg/kg BID) and ˜80% of the observed AUC0-12 hr at the HNSTD in dog (15 mg/kg BID).
# [3] = 150 mg, Cycle 1 Day 15, repeated BID oral, 150 mg BID monotherapy, geometric mean (CV %)
# [4] = 225 mg, Cycle 1 Day 1, single oral dose, 225 mg BID monotherapy, geometric mean (CV %)
# [5] = 225 mg, Cycle 1 Day 15, repeated BID oral, 225 mg BID monotherapy, geometric mean (CV %)
# [6] = 300 mg, Cycle 1 Day 1, single oral dose, 300 mg BID monotherapy, geometric mean (CV %)
# [7] = 300 mg, Cycle 1 Day 15, repeated BID oral, 300 mg BID monotherapy, geometric mean (CV %)
# [8] = 375 mg, Cycle 1 Day 1, single oral dose, 375 mg BID monotherapy, individual values
# [9] = 500 mg, Cycle 1 Day 1, single oral dose, 500 mg BID monotherapy, geometric mean (CV %)
# [10] = 500 mg, Cycle 1 Day 15, repeated BID oral, 500 mg BID monotherapy, individual value, N = 1
structure (smiles),measurement,setting,value
"COCc1cc(C(=O)Nc2cc([C@H]3CC[C@@H](OC(=O)NC(C)C)C3)[nH]n2)n(C)n1 [PF-07104091, (1R,3S)-3-[3-({[3-(methoxymethyl)-1-methyl-1H-pyrazol-5-yl]carbonyl}amino)-1H-pyrazol-5-yl]cyclopentyl propan-2-ylcarbamate]",Cmax,"[1]; 150 mg, Cycle 1 Day 1, single oral dose, 150 mg BID monotherapy, geometric mean (CV %)",739 ng/mL
same,Tmax,"[1]; 150 mg, Cycle 1 Day 1, single oral dose, 150 mg BID monotherapy, median (range), read-out: Tmax",2 h
same,half-life,"[1]; 150 mg, Cycle 1 Day 1, single oral dose, 150 mg BID monotherapy, n = 1",2.8 h
same,AUC(0-t),[1]; [3],8020 ng·h/mL
same,Cmax,[1]; [3],1320 ng/mL
same,Tmax,"[1]; 150 mg, Cycle 1 Day 15, repeated BID oral, 150 mg BID monotherapy, median (range), read-out: Tmax",2.2 h
same,half-life,"[1]; 150 mg, Cycle 1 Day 15, repeated BID oral, 150 mg BID monotherapy, n = 1",1.9 h
same,half-life,"[1]; 225 mg, Cycle 1 Day 1, single oral dose, 225 mg BID monotherapy, arithmetic mean ± SD",2.2 ± 0.7 h
same,AUC(0-t),[1]; [4],6630 ng·h/mL
same,Cmax,[1]; [4],1390 ng/mL
same,Tmax,"[1]; 225 mg, Cycle 1 Day 1, single oral dose, 225 mg BID monotherapy, median (range), read-out: Tmax",3.9 h
same,half-life,"[1]; 225 mg, Cycle 1 Day 15, repeated BID oral, 225 mg BID monotherapy, arithmetic mean ± SD",2.6 ± 0.9 h
same,AUC(0-t),[1]; [5],10700 ng·h/mL
same,Cmax,[1]; [5],2350 ng/mL
same,Tmax,"[1]; 225 mg, Cycle 1 Day 15, repeated BID oral, 225 mg BID monotherapy, median (range), read-out: Tmax",2 h
same,half-life,"[1]; 300 mg, Cycle 1 Day 1, single oral dose, 300 mg BID monotherapy, arithmetic mean ± SD",2 ± 0.6 h
same,AUC(0-t),[1]; [6],9110 ng·h/mL
same,Cmax,[1]; [6],1820 ng/mL
same,Tmax,"[1]; 300 mg, Cycle 1 Day 1, single oral dose, 300 mg BID monotherapy, median (range), read-out: Tmax",2 h
same,half-life,"[1]; 300 mg, Cycle 1 Day 15, repeated BID oral, 300 mg BID monotherapy, arithmetic mean ± SD",2.8 ± 0.2 h
same,AUC(0-t),[1]; [7],12500 ng·h/mL
same,Cmax,[1]; [7],2570 ng/mL
same,Tmax,"[1]; 300 mg, Cycle 1 Day 15, repeated BID oral, 300 mg BID monotherapy, median (range), read-out: Tmax",2.1 h
same,AUC(0-t),[1]; [8],11600 ng·h/mL
same,Cmax,[1]; [8],2520 ng/mL
same,Tmax,"[1]; 375 mg, Cycle 1 Day 1, single oral dose, 375 mg BID monotherapy, individual values, read-out: Tmax",4 h
same,half-life,"[1]; 375 mg, Cycle 1 Day 1, single oral dose, 375 mg BID monotherapy, n = 1",1.5 h
same,AUC(0-t),[1]; [9],15200 ng·h/mL
same,Cmax,[1]; [9],2980 ng/mL
same,Tmax,"[1]; 500 mg, Cycle 1 Day 1, single oral dose, 500 mg BID monotherapy, median (range), read-out: Tmax",5.3 h
same,AUC(0-t),[1]; [10],21500 ng·h/mL
same,Cmax,[1]; [10],4420 ng/mL
same,Tmax,"[1]; 500 mg, Cycle 1 Day 15, repeated BID oral, 500 mg BID monotherapy, individual value, N = 1, read-out: Tmax",4 h
same,Tmax,"[1]; oral administration at doses up to 300 mg BID, read-out: median Tmax",0.5 to 4 h
same,HNSTD,[2],15 mg/kg BID

# Reference: US20250127759A1, “METHODS AND DOSING REGIMENS COMPRISING A CDK2 INHIBITOR FOR THE TREATMENT OF CANCER” (PFIZER INC., priority 2021, published 2025)
